In US20020052295A1, “Diacyl derivatives of propylene diamine having herbicidal activity” (priority 1999, published 2002):

Legend:
Settings in all cases: lowest tested rate giving 80% or greater inhibition, approx. 14 days after planting and treating, greenhouse
CONAR = test: Pre-emergence herbicidal activity on CONAR (field bindweed); format: in vivo, Convolvulus arvensis
Summary of the method: (§1)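 GR80 values come from percent inhibition relative to untreated plants, rated roughly 14 days after planting and treating, with rates up to typically 1000 g/ha. Compound was sprayed onto the soil over freshly covered seeds as a dilution in 50:50 acetone/water; pots kept in greenhouse at 30/21° C. day/night after 0.64 cm overhead watering.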

PANMI = test: Pre-emergence herbicidal activity on PANMI (wild proso millet); format: in vivo, Panicum miliaceum
Summary of the method: as §1

SORVU = test: Pre-emergence herbicidal activity on SORVU (shattercane); format: in vivo, Sorghum vulgare
Text: (§2) All such uses, and the biological activity enabling such uses, are embraced by the term “herbicidal” herein. Tables 15 and 16 summarize results of tests conducted as described below to determine the pre-emergence herbicidal activity, in the form of a GR80 value, of illustrative compounds of this invention. […] Where herbicidal activity was evident but 80% inhibition was not achieved at the highest rate tested (typically 1000 g/ha), an asterisk (*) is shown in the following tables. Herbicidal activity evident in the form of symptoms of phytotoxicity, in the absence of at least 80% inhibition at any rate, is indicated in the tables by “phyto”. A blank cell in the following tables indicates no herbicidal or phytotoxic response at any rate tested.
(§3) The pre-emergence tests were conducted by the following procedure. Topsoil was sieved to pass through a 1.27 cm screen. Fertilizer was added to the topsoil and the mixture was then sterilized by heating. The topsoil mixture was placed in a pot and compacted to a depth of 1.0 to 1.25 cm from the top of the pot. Seeds of each of several monocotyledonous and dicotyledonous annual plant species were placed on top of the soil. Additional soil was subsequently placed over the seeds to level-fill the pot. A known amount of each test compound dissolved or suspended in an appropriate organic solvent was diluted with a 50:50 mix of acetone and water and applied to the surface of the soil. After treatment the plants were placed in a greenhouse with a 30/21° C. day/night temperature regime where they received 0.64 cm of overhead irrigation. All subsequent watering consisted of a light overhead mist and/or subirrigation as needed for germination and growth.
(§4) Approximately 14 days after planting and treating, the plants were observed and herbicidal efficacy recorded as percent inhibition by comparison with untreated plants.
(§5) The plant species usually regarded as weeds which were utilized in the tests are identified in the tables below according to the following legend, in which “d” indicates a dicotyledonous species and “m” a monocotyledonous species. All monocotyledonous species included in the tests herein are grasses.

DATST = test: Pre-emergence herbicidal activity on DATST (jimsonweed); format: in vivo, Datura stramonium
Summary of the method: as §1

SETFA = test: Pre-emergence herbicidal activity on SETFA (giant foxtail); format: in vivo, Setaria faberi
Summary of the method: as §1

SOLNI = test: Pre-emergence herbicidal activity on SOLNI (black nightshade); format: in vivo, Solanum nigrum
Summary of the method: as §1

DIGSA = test: Pre-emergence herbicidal activity on DIGSA (large crabgrass); format: in vivo, Digitaria sanguinalis
Summary of the method: as §1

AMARE = test: Pre-emergence herbicidal activity on AMARE (redroot pigweed); format: in vivo, Amaranthus retroflexus
Summary of the method: as §1

POROL = test: Pre-emergence herbicidal activity on POROL (common purslane); format: in vivo, Portulaca oleracea
Summary of the method: as §1

CHEAL = test: Pre-emergence herbicidal activity on CHEAL (common lambsquarters); format: in vivo, Chenopodium album
Summary of the method: as §1

SORHA = test: Pre-emergence herbicidal activity on SORHA (johnsongrass, seedling); format: in vivo, Sorghum halepense
Summary of the method: as §1

ECHCG = test: Pre-emergence herbicidal activity on ECHCG (barnyardgrass); format: in vivo, Echinochloa crus-galli
Text: as §2, §3, §4, §5

BRAPP = test: Pre-emergence herbicidal activity on BRAPP (broadleaf signalgrass); format: in vivo, Brachiaria platyphylla
Summary of the method: as §1

PANDI = test: Pre-emergence herbicidal activity on PANDI (fall panicum); format: in vivo, Panicum dichotomiflorum
Summary of the method: as §1

CIRAR = test: Pre-emergence herbicidal activity on CIRAR (canada thistle, seedling); format: in vivo, Cirsium arvense
Summary of the method: as §1

ABUTH = test: Pre-emergence herbicidal activity on ABUTH (velvetleaf); format: in vivo, Abutilon theophrasti
Summary of the method: as §1

Row | Structure (SMILES) | Pre-emergence activity (GR80) on CONAR (CONAR) | Pre-emergence activity (GR80) on PANMI (PANMI) [g/ha] | Pre-emergence activity (GR80) on SORVU (SORVU) | Pre-emergence activity (GR80) on DATST (DATST) [g/ha] | Pre-emergence activity (GR80) on SETFA (SETFA) [g/ha] | Pre-emergence activity (GR80) on SOLNI (SOLNI) [g/ha] | Pre-emergence activity (GR80) on DIGSA (DIGSA) [g/ha] | Pre-emergence activity (GR80) on AMARE (AMARE) [g/ha] | Pre-emergence activity (GR80) on PORAL (POROL) [g/ha] | Pre-emergence activity (GR80) on CHEAL (CHEAL) [g/ha] | Pre-emergence activity (GR80) on SORHA (SORHA) | Pre-emergence activity (GR80) on ECHCG (ECHCG) | Pre-emergence activity (GR80) on BRAPP (BRAPP) | Pre-emergence activity (GR80) on PANDI (PANDI) [g/ha] | Pre-emergence activity (GR80) on CIRAR (CIRAR) [g/ha] | Pre-emergence activity (GR80) on ABUTH (ABUTH) [g/ha]
1 | Cc1c(Cl)cccc1C(=O)NC(C)CNC(=O)c1cccc(C(F)(F)F)c1F (stereo not drawn) [Example 150] | 125 g/ha | 64 | phyto | 32 | 125 | 64 | 32 | 32 | 32 | 32 | * (Where herbicidal activity was evident but 80% inhibition was not achieved at the highest rate tested (typically 1000 g/ha), an asterisk (*) is shown) | * (Where herbicidal activity was evident but 80% inhibition was not achieved at the highest rate tested (typically 1000 g/ha), an asterisk (*) is shown) | * (Where herbicidal activity was evident but 80% inhibition was not achieved at the highest rate tested (typically 1000 g/ha), an asterisk (*) is shown) | 125 | 125 | 1000
2 | CC(CNC(=O)c1cccc(C(F)(F)F)c1)NC(=O)c1cccc(Cl)c1Cl (stereo not drawn) [Example 50] | 250 g/ha | 1000 | * (Where herbicidal activity was evident but 80% inhibition was not achieved at the highest rate tested (typically 1000 g/ha), an asterisk (*) is shown) | 125 | 750 | 125 | 125 | 32 | 32 | 32 | 1000 g/ha | * (Where herbicidal activity was evident but 80% inhibition was not achieved at the highest rate tested (typically 1000 g/ha), an asterisk (*) is shown) | 500 g/ha | 250 | 64 | 750
3 | CC(CNC(=O)c1cccc(C(F)(F)F)c1)NC(=O)c1ccccc1Cl (stereo not drawn) [Example 103] | * (Where herbicidal activity was evident but 80% inhibition was not achieved at the highest rate tested (typically 1000 g/ha), an asterisk (*) is shown) | 1000 | phyto | 500 | 500 | 250 | 500 | 125 | 125 | 500 | 500 g/ha | phyto | 750 g/ha | 500 | 750 | 750
